According to the supplement of paper PMC10307832:

Tests used:
Test in all cases: relative viability (nuclei count vs DMSO), 5 days (fraction); higher = more cells survive
Mirin + Tozasertib = compound: N=C1NC(=O)/C(=C/c2ccc(O)cc2)S1 [Mirin] + Cc1cc(Nc2cc(N3CCN(C)CC3)nc(Sc3ccc(NC(=O)C4CC4)cc3)n2)n[nH]1 [Tozasertib] (partner 0.1 µM)
Summary of the method: (§1)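 Relative viability is defined as nuclei in treated wells over nuclei in vehicle wells. Duplicate plates were run and medians reported. Lung cancer cell lines in 1536-well plates were dosed by pin tool one day after seeding, with one drug or with a fixed anchor-drug dose plus five library-drug doses (not always all listed) in √10 steps, and nuclei were counted after 5 days.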

Mirin + Linsitinib = compound: N=C1NC(=O)/C(=C/c2ccc(O)cc2)S1 [Mirin] + C[C@]1(O)C[C@@H](c2nc(-c3ccc4ccc(-c5ccccc5)nc4c3)c3c(N)nccn32)C1 [Linsitinib] (partner 1 µM)
Summary of the method: as §1

[1] = compound: CCn1c(-c2nonc2N)nc2cnc(Oc3cccc(NC(=O)c4ccc(OCCN5CCOCC5)cc4)c3)cc21 + CS(=O)(=O)CCNCc1ccc(-c2ccc3ncnc(Nc4ccc(OCc5cccc(F)c5)c(Cl)c4)c3c2)o1 [Lapatinib] (partner 2 µM)
Summary of the method: as §1

[2] = compound: CCC1=CN=CN=C1N2CCN(CC2)CC3=NC4=C(N3)C=C(C=C4)C(F)(F)F + C[C@@H](Oc1cc(-c2cnn(C3CCNCC3)c2)cnc1N)c1c(Cl)ccc(F)c1Cl [Crizotinib] (partner 1 µM)
Summary of the method: as §1

Cell Line	relative viability (Mirin + Tozasertib; first compound 0.25 µM)	relative viability (Mirin + Tozasertib; first compound 0.7906 µM)	relative viability (Mirin + Tozasertib; first compound 2.5 µM)	relative viability (Mirin + Tozasertib; first compound 7.906 µM)	relative viability (Mirin + Tozasertib; first compound 25 µM)	relative viability (Mirin + Linsitinib; first compound 0.25 µM)	relative viability (Mirin + Linsitinib; first compound 0.7906 µM)	relative viability (Mirin + Linsitinib; first compound 2.5 µM)	relative viability (Mirin + Linsitinib; first compound 7.906 µM)	relative viability (Mirin + Linsitinib; first compound 25 µM)	relative viability ([1]; first compound 0.04 µM)	relative viability ([1]; first compound 0.1265 µM)	relative viability ([1]; first compound 0.4 µM)	relative viability ([1]; first compound 1.265 µM)	relative viability ([1]; first compound 4 µM)	relative viability ([2]; first compound 0.04 µM)	relative viability ([2]; first compound 0.1265 µM)	relative viability ([2]; first compound 0.4 µM)	relative viability ([2]; first compound 1.265 µM)	relative viability ([2]; first compound 4 µM)
HCC-78	0.409	0.492	0.386	0.337	0.33	0.537	0.585	0.519	0.445	0.475	0.905	0.906	0.461	0.816	0.756	0.304	0.3	0.345	0.322	0.379
HCC-366	0.15		0.602	0.0813	0.103	0.677	0.468	0.903	0.644	0.316	1.25	1.01	0.251	0.0431	0.0373	0.622	0.493	0.579		1.15
HCC-827	0.412	0.39	0.421	0.384	0.426	0.959	0.972	0.949	0.935	1.18	0.195	0.273	0.197	0.251	0.21	0.89	0.903	0.945	0.973	0.917
HOP-62	0.367	0.381	0.357	0.257	0.324	1.09	0.856	0.937		0.866	1.16	1.02	0.996	0.866	0.461	0.777	1.09	0.931	1.06	0.896
IA-LM						0.754	0.584	0.789		0.87	1.14	0.915	1.11	0.913	0.909	0.907	0.763	0.94	0.669	0.759
LC-2-ad	0.459	0.35	0.476	0.342	0.256	0.816	1.03	0.937	0.833	0.732	0.992	0.968	0.578	0.435	0.412	0.501	0.431	0.503	0.749	0.852
LCLC-97TM1	0.191	0.151	0.19	0.138	0.122	0.174	0.166	0.177	0.143	0.141	1.78	1.54		1.74	1	0.389	0.354	0.387	0.413	0.502
LCLC-103H	0.417	0.554	0.481	0.461	0.336	1.12	1.11	1.08	1.22	1.13						1.09	1.01	1.04	1	1.16
LK-2	0.188		0.149	0.166	0.16	0.321	0.317	0.516	0.282	0.174	1.2	0.95	0.605	0.706	0.949	0.331	0.181	0.212	0.486	1.07
